Data: paper PMC7579840 (Journal of medicinal chemistry, 2019)
Read-outs that look alike come from different tables or passages of the source. Blank lines part the entries; values can stand above or below the compound they belong to.

How the values were obtained:
HeLa pEGFP-CK2α cells = assay: Subcellular localization of EGFP-CK2α, cell imaging; format: cell-based; conditions: 12 h
panel of 54 kinases [1] = conditions: overall selectivity; cited from earlier work
CK2α = CK2α (Homo sapiens, UniProt P68400); conditions: previous hit compounds included for comparison; cited from earlier work
Chain of CK2α (P68400 whole entry): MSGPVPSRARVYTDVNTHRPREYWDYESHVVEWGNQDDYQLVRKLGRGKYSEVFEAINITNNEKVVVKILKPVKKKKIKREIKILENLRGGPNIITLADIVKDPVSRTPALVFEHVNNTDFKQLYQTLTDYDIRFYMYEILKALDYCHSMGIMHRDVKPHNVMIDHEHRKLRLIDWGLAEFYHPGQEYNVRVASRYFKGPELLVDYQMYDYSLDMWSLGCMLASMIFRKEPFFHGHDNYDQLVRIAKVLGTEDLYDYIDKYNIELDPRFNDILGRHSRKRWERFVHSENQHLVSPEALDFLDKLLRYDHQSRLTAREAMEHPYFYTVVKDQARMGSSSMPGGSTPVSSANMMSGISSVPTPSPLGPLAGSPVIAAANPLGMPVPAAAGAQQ

panel of 54 kinases [2] = assay: Overall selectivity in kinase panel; conditions: 5 μM
human CK2α1−335 = biological target: T1, human CK2α1−335 (Homo sapiens, UniProt P68400); assay: Isothermal titration calorimetry; format: binding; conditions: ITC
T1 sequence (P68400 1-335): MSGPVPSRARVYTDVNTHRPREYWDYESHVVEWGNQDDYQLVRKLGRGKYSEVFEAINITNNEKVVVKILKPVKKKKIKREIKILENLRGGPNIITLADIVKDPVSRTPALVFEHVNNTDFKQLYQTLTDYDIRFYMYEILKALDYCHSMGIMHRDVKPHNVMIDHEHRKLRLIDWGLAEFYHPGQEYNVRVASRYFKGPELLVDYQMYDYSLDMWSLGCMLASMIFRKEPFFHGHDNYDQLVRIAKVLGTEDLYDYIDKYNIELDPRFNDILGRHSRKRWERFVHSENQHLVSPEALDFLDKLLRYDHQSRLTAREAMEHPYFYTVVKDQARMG

[3] = biological target: CK2α2β2 (peptide substrate) (Homo sapiens, UniProt P68400); assay: Radiometric kinase assay with CK2α2β2, peptide substrate; format: biochemical; conditions: peptide 29 and peptide M substrates (Figure 2B)
Chain of CK2α2β2 (peptide substrate) (P68400 whole entry): as the sequence (P68400 whole entry) above
Chain of CK2α2β2 (peptide substrate) (P67870 whole entry partner): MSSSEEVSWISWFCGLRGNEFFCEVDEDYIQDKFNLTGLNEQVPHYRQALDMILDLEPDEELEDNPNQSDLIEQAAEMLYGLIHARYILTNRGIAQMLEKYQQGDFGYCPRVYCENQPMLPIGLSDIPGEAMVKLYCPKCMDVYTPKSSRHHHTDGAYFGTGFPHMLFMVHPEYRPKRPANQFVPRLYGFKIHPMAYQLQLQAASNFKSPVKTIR

Dyrk1A = Dyrk1A (Homo sapiens, UniProt Q13627); assay: Kinase selectivity panel; conditions: 5 μM 27

Compound: O=C(O)c1ccc2c(c1)nc(Nc1cccc(Cl)c1)c1ccncc12 [CX-4945, 5-(3-chlorophenylamino)benzo[c][2,6]naphthyridine-8-carboxylic acid, reference compound]
subcellular localization of EGFP-CK2α (HeLa pEGFP-CK2α cells; 8 μM): significant translocation of EGFP-CK2α from the nucleoli to the nuclear matrix and the cytoplasm compartments | Gini coefficient (panel of 54 kinases [1]): 0.67

Compound: O=C(O)c1cccc(Nc2nc(-c3cccc([N+](=O)[O-])c3)cs2)c1 [compound 1, 3-((4-(3-nitrophenyl)thiazol-2-yl)amino)benzoic acid]
IC50 (CK2α): 30 µM

Gini coefficient (panel of 54 kinases [2]): 0.78 | TΔS (human CK2α1−335): 2.53 ± 0.29 kcal/mol | inhibition of holoenzyme complex compared with CK2α [3]: same potency | inhibition of Dyrk1A (Dyrk1A): only weakly inhibited
Compound: O=C(O)c1ccc(Nc2nc(-c3ccc4ccccc4c3)cs2)cc1O [compound 27, 2-Hydroxy-4-((4-(naphthalen-2-yl)thiazol-2-yl)amino)benzoic acid]
subcellular localization of EGFP-CK2α (HeLa pEGFP-CK2α cells; 15 μM): nucleolar localization pattern of EGFP-CK2α was mostly retained
